The results in this text go back to patent US20090123581A1, “COLLAGEN CROSS-LINKING AGENTS ON DENTAL RESTORATIVE TREATMENT AND PREVENTIVE DENTISTRY” (THE BOARD OF TRUSTEES OF THE UNIVERSITY OF ILLINOIS, priority 2006, published 2009).

Experiment [1] can be described thus: Ultimate tensile strength (UTS) of demineralized dentin after cross-linker treatment (Example 1). More on the design: species or system human. Conditions: for Ultimate tensile strength, mean: pH 7.4. The source says: (§1) Fixation Processes: Ten sound freshly extracted human molars were used in this study. The teeth were thawed, cleaned of adhering soft tissues, and the occlusal surfaces were ground flat with #320 grit Silicon Carbide paper under running water to remove part of the enamel. Flattening of the occlusal surface by removal of the cusps enables accurate sectioning of samples in beam shape. Teeth were sectioned into 0.5±0.1 by 0.5±0.1 mm thick beams (n=20 beams per tooth) with a slow speed diamond wafering blade (Buehler-Series 15LC Diamond, Lake Bluff, Ill., USA) under constant water coolant (FIG. 1A).
(§2) The slabs were randomly divided into two groups: 1) undemineralized dentin and 2) demineralized dentin (FIG. 1A). In Group 2, dentin beams were immersed in 10% phosphoric acid solution (Fisher Scientific, New Jersey, N.J.) for a period of 5 hours. X-rays were taken from the specimens to verify complete tissue demineralization. Specimens were thoroughly rinsed with distilled water for 10 minutes to remove any residue of the phosphoric acid.
(§3) Specimens from groups 1 and 2 were subdivided according to the dentin treatment (FIG. 1B). In Treatment A, specimens were immersed in PBS solution (pH: 7.4) as a control. In Treatment B, specimens were immersed in 0.5% Proanthocyanidin (MegaNatural—Polyphenolics Ind.) PBS solution (PA) at a pH of 7.4. In Treatment C, specimens were immersed in 0.625% Genipin (Wako Pure Chemical Ind.) PBS solution (GE) at a pH of 7.4. In Treatment D, specimens were immersed in 5% glutaraldehyde solution (GD) (Fisher Scientific, New Jersey, N.J.) at a pH of 7.4. Specimens were kept in their respective solutions for 4 and 40 hours at room temperature. After the incubation periods, specimens were thoroughly rinsed with distilled and deionized water to remove any remains of cross-linking agents and buffer.
(§4) UTS testing: For UTS evaluation, the specimens were glued with a cyanoacrylate adhesive (Zapit—Dental Ventures of America Inc., Corona, Calif.) to a Ciucchi's jig, which was mounted on a universal testing machine (EZ Test, Shimazu Co., Kyoto, Japan) and subjected to microtensile testing at a crosshead speed of 1 mm/min (FIG. 1C). Means and standard deviations were calculated and expressed in microtensile bond strengths (MPa). Statistical analysis was performed using a two-way ANOVA and Fisher's PLSD tests (p<0.05).

Experiment [2] can be described thus: Ultimate tensile strength (UTS) of undemineralized (mineralized) dentin after cross-linker treatment (Example 1). More on the design: species or system human. Particulars: 0.625% GE or 5% GD; for Ultimate tensile strength, mean: pH 7.4.
Description: as §1, §2, §3, §4

Turning to `COC(=O)C1=CO[C@@H](O)[C@@H]2C(CO)=CC[C@H]12` [GE, genipin], the “Ultimate tensile strength, mean” value in experiment [1] (4 hours in 0.5% PA, 0.625% GE or 5% GD) is given as 11.0 MPa; in experiment [1] (40 hours in 0.5% PA, 0.625% GE or 5% GD), 18.2 MPa; in experiment [2] (4 hours in 0.5% PA), 84.2 MPa; in experiment [2] (40 hours in 0.5% PA) it was 94.2 MPa. For the same compound, the “increase in the UTS values” in experiment [1] (40 hours treatment, versus control) is given as “approximately 80%”. Moreover, the “Ultimate tensile strength, pooled data” value in experiment [1] (pooled over 4 and 40 hours, 0.5% PA, 0.625% GE or 5% GD) came out at 14.6 B MPa; in experiment [2] (pooled over 4 and 40 hours, 0.5% PA), 89.2 A MPa. Besides, in experiment [1] (two-way ANOVA, Fisher's PLSD), the “UTS values compared to the control group (statistics)” value was “statistically significant increase”.
